Positions of bridges follow the written chain, without caps; N, C: chain ends. Non-standard residues stand in square brackets, D forms with d. Residues, ends and D or L forms follow the SMILES beside them. Orn = NCCC[C@H](N)C(=O)O; Dab = NCC[C@H](N)C(=O)O; Dap = NC[C@H](N)C(=O)O; Mpa = O=C(O)CCS
How the values were obtained:
Rattus norvegicus [1] = species: Rattus norvegicus; test: Antidiuretic activity in rat; assay type: functional, Urine
Rattus norvegicus [2] = species: Rattus norvegicus; test: Vasopressor activity in rat; assay type: functional
Vasopressin V2 receptor = Vasopressin V2 receptor (Rattus norvegicus, UniProt Q00788); test: Displacement of [3H]AVP from vasopressin V2 receptor in rat kidney membranes; assay type: cell membranes, Membrane
Chain of Vasopressin V2 receptor (Q00788 whole entry): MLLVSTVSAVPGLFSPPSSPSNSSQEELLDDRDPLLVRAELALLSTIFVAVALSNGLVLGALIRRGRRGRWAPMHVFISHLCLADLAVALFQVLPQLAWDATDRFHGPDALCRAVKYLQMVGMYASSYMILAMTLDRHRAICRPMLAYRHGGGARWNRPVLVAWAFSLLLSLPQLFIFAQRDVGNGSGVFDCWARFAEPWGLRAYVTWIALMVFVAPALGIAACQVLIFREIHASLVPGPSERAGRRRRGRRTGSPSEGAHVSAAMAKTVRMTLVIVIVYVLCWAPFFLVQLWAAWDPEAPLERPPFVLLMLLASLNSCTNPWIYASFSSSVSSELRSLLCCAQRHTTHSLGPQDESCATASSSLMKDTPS

Vasopressin V1a receptor = Vasopressin V1a receptor (Rattus norvegicus, UniProt P30560); test: Displacement of [3H]AVP from vasopressin V1a receptor in rat liver membrane; assay type: cell membranes
Chain of Vasopressin V1a receptor (P30560 whole entry): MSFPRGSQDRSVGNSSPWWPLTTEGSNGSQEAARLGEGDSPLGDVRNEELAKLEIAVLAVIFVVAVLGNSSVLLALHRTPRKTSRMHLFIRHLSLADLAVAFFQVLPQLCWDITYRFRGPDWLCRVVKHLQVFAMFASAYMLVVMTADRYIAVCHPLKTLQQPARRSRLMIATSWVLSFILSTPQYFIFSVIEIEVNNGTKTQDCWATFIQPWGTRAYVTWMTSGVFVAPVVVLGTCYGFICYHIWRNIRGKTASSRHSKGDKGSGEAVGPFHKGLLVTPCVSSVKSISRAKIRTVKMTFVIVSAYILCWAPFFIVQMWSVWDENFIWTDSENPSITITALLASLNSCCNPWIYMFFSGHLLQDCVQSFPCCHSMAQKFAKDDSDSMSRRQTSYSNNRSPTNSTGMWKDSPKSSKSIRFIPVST

[3] = target: T1, Oxytocin receptor (Homo sapiens) (UniProt P30559); test: Activity at OT receptor assessed as oxytocic activity in absence of magnesium; assay type: functional; conditions: filed as agonist
T1 sequence (whole entry): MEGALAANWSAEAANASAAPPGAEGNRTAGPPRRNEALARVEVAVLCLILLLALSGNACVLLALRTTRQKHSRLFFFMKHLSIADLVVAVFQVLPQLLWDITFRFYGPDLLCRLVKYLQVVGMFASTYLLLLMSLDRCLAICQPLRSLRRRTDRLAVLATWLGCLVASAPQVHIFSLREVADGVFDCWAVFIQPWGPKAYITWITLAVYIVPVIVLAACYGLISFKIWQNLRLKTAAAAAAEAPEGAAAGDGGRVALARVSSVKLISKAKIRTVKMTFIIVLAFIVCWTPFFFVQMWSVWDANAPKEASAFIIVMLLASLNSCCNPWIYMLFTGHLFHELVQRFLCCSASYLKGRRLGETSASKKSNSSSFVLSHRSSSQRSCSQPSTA

Oxytocin receptor = target: T2, Oxytocin receptor (Rattus norvegicus, UniProt P70536); test: Displacement of [3H]AVP from rat OT receptor expressed in CHO cells; assay type: cell-based
T2 sequence (P70536 whole entry): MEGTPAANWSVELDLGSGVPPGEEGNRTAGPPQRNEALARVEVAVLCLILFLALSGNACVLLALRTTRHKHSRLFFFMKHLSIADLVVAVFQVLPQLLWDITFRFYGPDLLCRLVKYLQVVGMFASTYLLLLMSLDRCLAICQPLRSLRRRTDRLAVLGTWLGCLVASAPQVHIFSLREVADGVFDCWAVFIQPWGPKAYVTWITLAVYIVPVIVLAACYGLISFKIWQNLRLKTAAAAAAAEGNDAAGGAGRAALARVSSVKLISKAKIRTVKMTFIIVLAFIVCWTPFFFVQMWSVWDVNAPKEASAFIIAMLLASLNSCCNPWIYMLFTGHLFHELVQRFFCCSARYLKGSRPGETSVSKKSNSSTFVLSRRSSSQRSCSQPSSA

| Structure (SMILES) | Activity (Rattus norvegicus [1]) | Activity (Rattus norvegicus [2]) | Ki (Vasopressin V2 receptor) | Ki (Vasopressin V1a receptor) | Activity [3] | Ki (Oxytocin receptor) | Activity (Rattus norvegicus [2]; filed as antagonist) |
| --- | --- | --- | --- | --- | --- | --- | --- |
| NC(=O)CNC(=O)[C@H](CCCN=C(N)N)NC(=O)[C@@H]1CCCN1C(=O)[C@@H]1CSSCCC(=O)N[C@@H](Cc2ccc(O)cc2)C(=O)N[C@@H](Cc2ccccc2)C(=O)N[C@@H](CCCN=C(N)N)C(=O)N[C@@H](CC(N)=O)C(=O)N1 ([Mpa]YFRNCPRG-NH2; disulfide 1-6) | 748.32 U/mg | 159.93 U/mg | – | – | – | – | – |
| N=C(N)NCCC[C@@H]1NC(=O)[C@H](Cc2ccccc2)NC(=O)[C@H](Cc2ccc(O)cc2)NC(=O)CCSSC[C@@H](C(=O)N2CCC[C@H]2C(=O)N[C@@H](CCCN=C(N)N)C(=O)NCC(N)=O)NC(=O)[C@H](CC(N)=O)NC1=O ([Mpa]YFRNCPRG-NH2; disulfide 1-6) | – | – | 0.2 nM (antagonist) | 12.9 nM (antagonist) | – | – | – |
| N=C(N)NCCC[C@@H]1NC(=O)[C@H](Cc2ccccc2)NC(=O)[C@H](Cc2ccc(O)cc2)NC(=O)CCSSC[C@@H](C(=O)N2CCC[C@H]2C(=O)N[C@@H](CCCN)C(=O)NCC(N)=O)NC(=O)[C@H](CC(N)=O)NC1=O ([Mpa]YFRNCP[Orn]G-NH2; disulfide 1-6) | 823 U/mg | 173 U/mg | 3.1 nM (antagonist) | 67 nM (antagonist) | 0.06 U/mg | 130 nM (antagonist) | – |
| N=C(N)NCCC[C@@H](NC(=O)[C@@H]1CCCN1C(=O)[C@@H]1CSSCCC(=O)N[C@@H](Cc2ccc(O)cc2)C(=O)N[C@@H](Cc2ccccc2)C(=O)N[C@@H](CCC(N)=O)C(=O)N[C@@H](CC(N)=O)C(=O)N1)C(=O)NCC(N)=O (stereo in doubt; form 1) [DESMOPRESSIN] | 1745 U/mg | 346 U/mg | 0.8 nM (antagonist) | – | – | – | – |
| NCCC[C@@H]1NC(=O)[C@H](Cc2ccccc2)NC(=O)[C@H](Cc2ccc(O)cc2)NC(=O)CCSSC[C@@H](C(=O)N2CCC[C@H]2C(=O)N[C@@H](CCCN=C(N)N)C(=O)NCC(N)=O)NC(=O)[C@H](CC(N)=O)NC1=O ([Mpa]YF[Orn]NCPRG-NH2; disulfide 1-6) | 260.32 U/mg | 1.54 U/mg | 3.4 nM (antagonist) | 900 nM (antagonist) | – | – | – |
| N=C(N)NCCC[C@H](NC(=O)[C@@H]1CCCN1C(=O)[C@@H]1CSSCCC(=O)N[C@H](Cc2cccnc2)C(=O)N[C@@H](Cc2ccccc2)C(=O)N[C@@H](CCC(N)=O)C(=O)N[C@@H](CC(N)=O)C(=O)N1)C(=O)NCC(N)=O | 1 U/mg | – | 69 nM (antagonist) | 450 nM (antagonist) | – | – | Antagonist |
| NC(=O)CC[C@@H]1NC(=O)[C@H](Cc2ccccc2)NC(=O)[C@H](Cc2ccc(O)cc2)NC(=O)[C@@H](N)CSSC[C@@H](C(=O)N2CCC[C@H]2C(=O)N[C@@H](CCCN=C(N)N)C(=O)NCC(N)=O)NC(=O)[C@H](CC(N)=O)NC1=O [VASOPRESSIN] | – | – | – | – | – | 1.17 nM (antagonist) | – |
| N=C(N)NCCC[C@@H]1NC(=O)[C@H](Cc2ccccc2)NC(=O)[C@H](Cc2ccc(O)cc2)NC(=O)CCSSC[C@@H](C(=O)N2CCC[C@H]2C(=O)N[C@@H](CCCCN)C(=O)NCC(N)=O)NC(=O)[C@H](CC(N)=O)NC1=O ([Mpa]YFRNCPKG-NH2; disulfide 1-6) | 784 U/mg | 83 U/mg | 3.8 nM (antagonist) | 130 nM (antagonist) | 0.15 U/mg | 125 nM (antagonist) | – |
| CC(C)[C@@H]1NC(=O)[C@H](Cc2ccccc2)NC(=O)[C@H](Cc2ccc(O)cc2)NC(=O)CCSSC[C@@H](C(=O)N2CCC[C@H]2C(=O)N[C@@H](CCCN=C(N)N)C(=O)NCC(N)=O)NC(=O)[C@H](CC(N)=O)NC1=O ([Mpa]YFVNCPRG-NH2; disulfide 1-6) | – | – | 0.3 nM (antagonist) | 60 nM (antagonist) | – | – | – |
| CC(C)C[C@@H]1NC(=O)[C@H](Cc2ccccc2)NC(=O)[C@H](Cc2ccc(O)cc2)NC(=O)CCSSC[C@@H](C(=O)N2CCC[C@H]2C(=O)N[C@@H](CCCN=C(N)N)C(=O)NCC(N)=O)NC(=O)[C@H](CC(N)=O)NC1=O ([Mpa]YFLNCPRG-NH2; disulfide 1-6) | – | – | 3.1 nM (antagonist) | 1250 nM (antagonist) | – | – | – |
| CC(C)[C@@H]1NC(=O)[C@H](Cc2ccccc2)NC(=O)[C@H](Cc2ccc(O)cc2)NC(=O)CCSSC[C@@H](C(=O)N2CCC[C@H]2C(=O)N[C@@H](CCCNC(=N)N)C(=O)NCC(N)=O)NC(=O)[C@H](CC(N)=O)NC1=O ([Mpa]YFVNCPRG-NH2; disulfide 1-6) | 1150 U/mg | 51 U/mg | – | – | – | – | – |
| N=C(N)NCCC[C@@H]1NC(=O)[C@H](Cc2ccccc2)NC(=O)[C@H](Cc2ccc(O)cc2)NC(=O)CCSSC[C@@H](C(=O)N2CCC[C@H]2C(=O)N[C@@H](CCN)C(=O)NCC(N)=O)NC(=O)[C@H](CC(N)=O)NC1=O ([Mpa]YFRNCP[Dab]G-NH2; disulfide 1-6) | 431 U/mg | 190 U/mg | 1.8 nM (antagonist) | 25 nM (antagonist) | 0.14 U/mg | 195 nM (antagonist) | – |
| CC(C)C[C@@H]1NC(=O)[C@H](Cc2ccccc2)NC(=O)[C@H](Cc2ccc(O)cc2)NC(=O)CCSSC[C@@H](C(=O)N2CCC[C@H]2C(=O)N[C@@H](CCCNC(=N)N)C(=O)NCC(N)=O)NC(=O)[C@H](CC(N)=O)NC1=O ([Mpa]YFLNCPRG-NH2; disulfide 1-6) | 378 U/mg | 3.11 U/mg | – | – | 0.67 U/mg | – | – |
| CC(C)C[C@@H]1NC(=O)[C@H](Cc2ccccc2)NC(=O)[C@H](Cc2ccc(O)cc2)NC(=O)CCSSC[C@@H](C(=O)N2CCC[C@H]2C(=O)N[C@@H](CCCN)C(=O)NCC(N)=O)NC(=O)[C@H](CC(N)=O)NC1=O ([Mpa]YFLNCP[Orn]G-NH2; disulfide 1-6) | 5.7 U/mg | 3.1 U/mg | 425 nM (antagonist) | 1400 nM (antagonist) | – | – | – |
| NCCCC[C@H](NC(=O)[C@@H]1CCCN1C(=O)[C@@H]1CSSCCC(=O)N[C@@H](Cc2ccc(O)cc2)C(=O)N[C@@H](Cc2ccccc2)C(=O)N[C@@H](CCC(N)=O)C(=O)N[C@@H](CC(N)=O)C(=O)N1)C(=O)NCC(N)=O | 550 U/mg | 145 U/mg | – | – | 12 U/mg | – | – |
| NCCC[C@H](NC(=O)[C@@H]1CCCN1C(=O)[C@@H]1CSSCCC(=O)N[C@@H](Cc2ccc(O)cc2)C(=O)N[C@@H](Cc2ccccc2)C(=O)N[C@@H](CCC(N)=O)C(=O)N[C@@H](CC(N)=O)C(=O)N1)C(=O)NCC(N)=O | 486 U/mg | 355 U/mg | – | – | 15 U/mg | – | – |
| NC[C@H](NC(=O)[C@@H]1CCCN1C(=O)[C@@H]1CSSCCC(=O)N[C@@H](Cc2ccc(O)cc2)C(=O)N[C@@H](Cc2ccccc2)C(=O)N[C@@H](CCC(N)=O)C(=O)N[C@@H](CC(N)=O)C(=O)N1)C(=O)NCC(N)=O ([Mpa]YFQNCP[Dap]G-NH2; disulfide 1-6) | 165 U/mg | 8.7 U/mg | – | – | 0.9 U/mg | – | – |
| NCCCC[C@H](NC(=O)[C@@H]1CCCN1C(=O)[C@@H]1CSSCCC(=O)N[C@@H](Cc2ccc(O)cc2)C(=O)N[C@@H](Cc2ccccc2)C(=O)N[C@@H](CCCN)C(=O)N[C@@H](CC(N)=O)C(=O)N1)C(=O)NCC(N)=O ([Mpa]YF[Orn]NCPKG-NH2; disulfide 1-6) | 7.8 U/mg | 0.23 U/mg | 51 nM (antagonist) | 2800 nM (antagonist) | 3.1 U/mg | 22 nM (antagonist) | – |
| NCC[C@H](NC(=O)[C@@H]1CCCN1C(=O)[C@@H]1CSSCCC(=O)N[C@@H](Cc2ccc(O)cc2)C(=O)N[C@@H](Cc2ccccc2)C(=O)N[C@@H](CCC(N)=O)C(=O)N[C@@H](CC(N)=O)C(=O)N1)C(=O)NCC(N)=O ([Mpa]YFQNCP[Dab]G-NH2; disulfide 1-6) | 463 U/mg | 385 U/mg | – | – | 25 U/mg | – | – |
| CC(C)[C@@H]1NC(=O)[C@H](Cc2ccccc2)NC(=O)[C@H](Cc2ccc(O)cc2)NC(=O)CCSSC[C@@H](C(=O)N2CCC[C@H]2C(=O)N[C@H](CCCNC(=N)N)C(=O)NCC(N)=O)NC(=O)[C@H](CC(N)=O)NC1=O ([Mpa]YFVNCP[dR]G-NH2; disulfide 1-6) | 1230 U/mg | <0.01 U/mg | 0.26 nM (antagonist) | 316 nM (antagonist) | – | – | – |
| N=C(N)NCCC[C@@H](NC(=O)[C@@H]1CCCN1C(=O)[C@@H]1CSSCCC(=O)N[C@@H](Cc2ccc(O)cc2)C(=O)N[C@@H](Cc2ccccc2)C(=O)N[C@@H](CCC(N)=O)C(=O)N[C@@H](CC(N)=O)C(=O)N1)C(=O)NCC(N)=O (stereo in doubt; form 2) [DESMOPRESSIN] | 1200 U/mg | 0.39 U/mg | 0.3 nM (antagonist) | – | – | – | – |

Source: ChEMBL document CHEMBL1141418 (J Med Chem, 2007)
